Measured values: patent publication US20030215462A1, “Use of UGT inhibitors to increase bioavailability” (priority 2001, published 2003)
Where “and” joins values, the source holds several entries; their conditions need not be identical. Equal values may be shown once.

Key:
[1] = tested on: UGT enzymes of pooled human jejunum microsomes; assay: Inhibition of raloxifene glucuronidation (G1, G2) in pooled human jejunum microsomes; format: biochemical; settings: jejunum HJ61; inhibitor 10 μM
Method: Compounds were eluted using a binary solvent gradient system. […] Solvent B was methanol. […] Detection was at 280 nm.
Standardized incubations utilized […] microsomal protein, 1 mM UDPGA and a 30 min incubation time.

[2] = molecular target: T1, UGT1A3 (Homo sapiens, UniProt P35503); assay: Inhibition of raloxifene glucuronidation by recombinant UGT1A3 Supersomes; settings: human; for activity at 15 min, 10 µM: inhibitor 10 μM; for activity at 15 min, 25 µM: inhibitor 25 μM; for activity at 15 min, 50 µM: inhibitor 50 μM
T1 sequence (P35503 29-534): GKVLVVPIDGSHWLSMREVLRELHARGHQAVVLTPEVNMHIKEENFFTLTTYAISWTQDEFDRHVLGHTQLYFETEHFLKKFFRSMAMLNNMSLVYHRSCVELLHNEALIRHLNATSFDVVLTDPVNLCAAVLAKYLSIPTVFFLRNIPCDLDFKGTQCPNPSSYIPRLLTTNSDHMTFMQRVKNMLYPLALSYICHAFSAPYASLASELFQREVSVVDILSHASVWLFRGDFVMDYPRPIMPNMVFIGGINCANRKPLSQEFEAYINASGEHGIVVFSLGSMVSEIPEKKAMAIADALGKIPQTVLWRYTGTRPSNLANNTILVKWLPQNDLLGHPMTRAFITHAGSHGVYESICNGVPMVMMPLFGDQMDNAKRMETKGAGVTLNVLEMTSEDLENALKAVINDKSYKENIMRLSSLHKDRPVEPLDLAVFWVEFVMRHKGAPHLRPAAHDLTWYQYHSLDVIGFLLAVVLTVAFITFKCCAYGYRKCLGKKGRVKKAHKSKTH
Method: (§2) Compounds were eluted using a binary solvent gradient system. Solvent A was water brought to pH 8 with NH4OH. Solvent B was methanol. Solvent flow rate was 1 ml/min and the column temperature was maintained at 50° C. Detection was at 280 nm. […] The system was then returned to the initial conditions and equilibrated for 3 min.

[3] = tested on: UGT enzymes of pooled human jejunum microsomes; assay: Inhibition of estradiol (E2) glucuronidation in pooled human jejunum microsomes; format: biochemical; settings: jejunum HJ61; E2 50 μM; inhibitor 10 μM
From the text: (§1) Compounds were eluted using a binary solvent gradient system where solvent A was dilute phosphoric acid (pH 3) and solvent B was 80:20 acetonitrile-methanol. […] Detection was at 280 nm.

[4] = molecular target: T2, UGT enzymes of human liver microsomes; assay: Inhibition of 7-HFC glucuronidation in human liver microsomes; format: biochemical; settings: for % of control metabolism (SD, n = 3), 7-HFC glucuronidation: human liver microsomes 100 μg/ml
T2 construct: percentage of control metabolism, 7-HFC glucuronidation; percentage of control metabolism, 7-HFC glucuronidation

[5] = molecular target: T3, UGT1A1 (Homo sapiens, UniProt P22309); assay: Inhibition of raloxifene glucuronidation by recombinant UGT1A1 Supersomes; settings: human; for activity at 15 min, 2 μM: inhibitor 2 μM; for activity at 15 min, 5 µM: inhibitor 5 μM; for activity at 15 min, 10 µM: inhibitor 10 μM; for activity at 15 min, 25 µM: inhibitor 25 μM; for activity at 15 min, 50 µM: inhibitor 50 μM
T3 sequence (P22309 26-533): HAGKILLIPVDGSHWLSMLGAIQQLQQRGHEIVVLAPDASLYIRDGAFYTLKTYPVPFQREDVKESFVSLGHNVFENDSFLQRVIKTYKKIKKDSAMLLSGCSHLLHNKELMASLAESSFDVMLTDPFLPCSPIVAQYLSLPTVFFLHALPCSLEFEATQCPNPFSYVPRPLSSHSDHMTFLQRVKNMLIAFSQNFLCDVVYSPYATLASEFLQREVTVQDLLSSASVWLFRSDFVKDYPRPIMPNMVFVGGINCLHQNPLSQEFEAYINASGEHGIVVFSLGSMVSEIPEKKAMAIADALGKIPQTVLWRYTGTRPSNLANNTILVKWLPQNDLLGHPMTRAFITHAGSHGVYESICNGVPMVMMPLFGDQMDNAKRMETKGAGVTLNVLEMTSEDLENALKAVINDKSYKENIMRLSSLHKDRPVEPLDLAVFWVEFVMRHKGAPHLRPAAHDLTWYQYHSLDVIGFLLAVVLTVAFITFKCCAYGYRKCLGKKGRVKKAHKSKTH
Method: as §2

[6] = tested on: UGT enzymes of human liver microsomes; assay: Inhibition of estradiol (E2) glucuronidation in human liver microsomes; format: biochemical; settings: E2 50 μM, inhibitor 10 μM
From the text: as §1

[7] = molecular target: T4, UGT1A10 (Homo sapiens, UniProt Q9HAW8); assay: Inhibition of raloxifene glucuronidation by recombinant UGT1A10 Bacculosomes; settings: human, Bacculosomes with recombinant human UGT1A10, pH 7.5, probe raloxifene 50 μM; for activity at 15 min, 25 µM: inhibitor 25 μM; for activity at 15 min, 50 µM: inhibitor 50 μM
T4 sequence (Q9HAW8 26-530): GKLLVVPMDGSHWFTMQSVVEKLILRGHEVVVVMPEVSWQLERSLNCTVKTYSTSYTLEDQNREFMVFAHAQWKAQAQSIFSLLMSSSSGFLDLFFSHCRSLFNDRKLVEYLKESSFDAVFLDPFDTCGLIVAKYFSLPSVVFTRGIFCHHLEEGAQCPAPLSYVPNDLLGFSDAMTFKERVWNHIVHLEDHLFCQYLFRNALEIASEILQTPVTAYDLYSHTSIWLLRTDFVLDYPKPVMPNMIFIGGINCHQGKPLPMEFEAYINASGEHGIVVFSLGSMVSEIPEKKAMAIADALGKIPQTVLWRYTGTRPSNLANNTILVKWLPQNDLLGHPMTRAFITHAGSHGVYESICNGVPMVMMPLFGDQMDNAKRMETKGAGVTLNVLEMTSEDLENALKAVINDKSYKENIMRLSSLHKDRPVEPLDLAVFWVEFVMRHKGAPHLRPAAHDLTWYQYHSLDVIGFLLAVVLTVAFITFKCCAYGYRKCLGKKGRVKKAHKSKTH
Method: as §2

[8] = Supersomes with recombinant human UGT1A3, pH 7.5, probe raloxifene 50 μM, formation of glucuronide G1, % of control metabolism, raloxifene G1, UGT1A3
[9] = Supersomes with recombinant human UGT1A3, pH 7.5, probe raloxifene 50 μM, formation of glucuronide G2, % of control metabolism, raloxifene G2, UGT1A3
[10] = recombinant UGT1A3 Supersomes, pH 7.5, probe raloxifene 50 μM (formation of glucuronide G1), Inhibition of raloxifene glucuronidation, G1, UGT1A3, G1, raloxifene 50 μM, 250 μg/ml Supersomes, 1 mM UDPGA, 15 min
[11] = recombinant UGT1A3 Supersomes, pH 7.5, probe raloxifene 50 μM (formation of glucuronide G2), Inhibition of raloxifene glucuronidation, G2, UGT1A3, G2, raloxifene 50 μM, 250 μg/ml Supersomes, 1 mM UDPGA, 15 min
[12] = Supersomes with recombinant human UGT1A1, pH 7.5, probe raloxifene 50 μM, formation of glucuronide G1, % of control metabolism, raloxifene G1, UGT1A1
[13] = Supersomes with recombinant human UGT1A1, pH 7.5, probe raloxifene 50 μM, formation of glucuronide G1, Inhibition of raloxifene glucuronidation, G1, UGT1A1, G1, raloxifene 50 μM, 250 μg/ml Supersomes, 1 mM UDPGA, 15 min
[14] = Supersomes with recombinant human UGT1A1, pH 7.5, probe raloxifene 50 μM, formation of glucuronide G2, % of control metabolism, raloxifene G2, UGT1A1
[15] = recombinant UGT1A1 Supersomes, pH 7.5, probe raloxifene 50 μM (formation of glucuronide G1), Inhibition of raloxifene glucuronidation, G1, UGT1A1, G1, raloxifene 50 μM, 250 μg/ml Supersomes, 1 mM UDPGA, 15 min
[16] = recombinant UGT1A1 Supersomes, pH 7.5, probe raloxifene 50 μM (formation of glucuronide G2), Inhibition of raloxifene glucuronidation, G2, UGT1A1, G2, raloxifene 50 μM, 250 μg/ml Supersomes, 1 mM UDPGA, 15 min
[17] = formation of glucuronide G1, % of control metabolism, raloxifene G1, UGT1A10
[18] = formation of glucuronide G2, % of control metabolism, raloxifene G2, UGT1A10

O=C(OC[C@H]1O[C@@H](OC(=O)c2cc(O)c(O)c(OC(=O)c3cc(O)c(O)c(O)c3)c2)[C@H](OC(=O)c2cc(O)c(O)c(OC(=O)c3cc(O)c(O)c(O)c3)c2)[C@@H](OC(=O)c2cc(O)c(O)c(OC(=O)c3cc(O)c(O)c(O)c3)c2)[C@@H]1OC(=O)c1cc(O)c(O)c(OC(=O)c2cc(O)c(O)c(O)c2)c1)c1cc(O)c(O)c(OC(=O)c2cc(O)c(O)c(O)c2)c1 [Tannic acid]
% of control metabolism, raloxifene G1 [1]: 39 (7) %
% of control metabolism, raloxifene G2 [1]: 47 (8) %
activity at 15 min, 10 µM [2, 8]: 48%
activity at 15 min, 25 µM [2, 8]: 25%
activity at 15 min, 50 µM [2, 8]: 3%
activity at 15 min, 10 µM [2, 9]: 64%
activity at 15 min, 25 µM [2, 9]: 38%
activity at 15 min, 50 µM [2, 9]: 5%
activity at 15 min, 10 µM [2, 10]: 48%
activity at 15 min, 25 µM [2, 10]: 25%
activity at 15 min, 50 µM [2, 10]: 3%
activity at 15 min, 10 µM [2, 11]: 64%
activity at 15 min, 25 µM [2, 11]: 38%
activity at 15 min, 50 µM [2, 11]: 5%
residual metabolism (% of control), E2-3-β-D-glucuronide [3]: 18 (1) %
residual metabolism (% of control), E2-17-β-D-glucuronide [3]: 17 (1) %
IC50 ([4]; 7-HFC 50 μM, 1 mM UDPGA, 15 min): 10 µM
percentage of control metabolism, 7-HFC glucuronidation ([4]; inhibitor 25 μM): 14 (1) % and 18 (0) %
% of control metabolism (SD, n = 3), 7-HFC glucuronidation ([4]; inhibitor 25 μM, 7-HFC 50 μM, 15 min): 14 (1), % and 18 (0) %
percentage of control metabolism, 7-HFC glucuronidation ([4]; inhibitor 50 μM): 2 (0) %
% of control metabolism (SD, n = 3), 7-HFC glucuronidation ([4]; inhibitor 50 μM, 7-HFC 50 μM, 15 min): 2 (0) %
percentage of control metabolism, 7-HFC glucuronidation ([4]; inhibitor 100 μM): 0 (0) %
% of control metabolism (SD, n = 3), 7-HFC glucuronidation ([4]; inhibitor 100 μM, 7-HFC 50 μM, 15 min): 0 (0) %
percentage of control metabolism, 7-HFC glucuronidation ([4]; inhibitor 200 μM): 0 (0) %
% of control metabolism (SD, n = 3), 7-HFC glucuronidation ([4]; inhibitor 200 μM, 7-HFC 50 μM, 15 min): 0 (0) %
percentage of control metabolism, 7-HFC glucuronidation ([4]; inhibitor 500 μM): 0 (0) %
% of control metabolism (SD, n = 3), 7-HFC glucuronidation ([4]; inhibitor 500 μM, 7-HFC 50 μM, 15 min): 0 (0) %
activity at 15 min ([5]; Supersomes with recombinant human UGT1A1, pH 7.5, probe raloxifene 50 μM, formation of glucuronide G1): 17%
activity at 15 min, 2 μM [5, 12]: 71%
activity at 15 min, 5 µM [5, 12]: 39%
activity at 15 min, 10 µM [5, 12]: 17%
activity at 15 min, 25 µM [5, 12]: 4%
activity at 15 min, 50 µM [5, 12]: 0.4%
activity at 15 min, 25 µM [5, 13]: 4%
activity at 15 min, 50 µM [5, 13]: 0.4%
activity at 15 min, 2 μM [5, 14]: 71%
activity at 15 min, 5 µM [5, 14]: 38%
activity at 15 min, 10 µM [5, 14]: 17%
activity at 15 min, 25 µM [5, 14]: 8%
activity at 15 min, 50 µM [5, 14]: 0.9%
activity at 15 min, 2 μM [5, 15]: 71%
activity at 15 min, 5 µM [5, 15]: 39%
activity at 15 min ([5]; recombinant UGT1A1 Supersomes, pH 7.5, probe raloxifene 50 μM (formation of glucuronide G2)): 17%
activity at 15 min, 2 μM [5, 16]: 71%
activity at 15 min, 5 µM [5, 16]: 38%
activity at 15 min, 25 µM [5, 16]: 8%
activity at 15 min, 50 µM [5, 16]: 0.9%
residual metabolism (% of control), E2-3-β-D-glucuronide ([6]; liver 032101): 14 (1) %
residual metabolism (% of control), E2-17-β-D-glucuronide ([6]; liver 032101): 75 (3) %
residual metabolism (% of control), E2-3-β-D-glucuronide ([6]; liver 062101): 26 (4) %
residual metabolism (% of control), E2-17-β-D-glucuronide ([6]; liver 062101): 72 (3) %
activity at 15 min, 25 µM [7, 17]: 56%
activity at 15 min, 50 µM [7, 17]: 10%
activity at 15 min, 25 µM [7, 18]: 53%
activity at 15 min, 50 µM [7, 18]: 8%
